Data: PMC8330742, “New benzothieno[2,3-c]pyridines as non-steroidal CYP17 inhibitors: design, synthesis, anticancer screening, apoptosis induction, and in silico ADME profile studies” (Journal of Enzyme Inhibition and Medicinal Chemistry, 2021)

How the values were obtained:
HCT-15 = test: NCI-60 SRB screen; assay type: cell-based, human; details: Homo sapiens; single dose 10^−5 M; HCT-15, Colon cancer; read-out: Growth inhibition (%)
HCT-116 = test: NCI-60 SRB screen; assay type: cell-based, human; details: Homo sapiens; single dose 10^−5 M; HCT-116, Colon cancer; read-out: Growth inhibition (%)
HCC-2998 = test: NCI-60 SRB screen; assay type: cell-based, human; details: Homo sapiens; single dose 10^−5 M; HCC-2998, Colon cancer; read-out: Growth inhibition (%)
COLO 205 = test: NCI-60 SRB screen; assay type: cell-based, human; details: Homo sapiens; single dose 10^−5 M; COLO 205, Colon cancer; read-out: Growth inhibition (%)
786-0 = test: NCI-60 SRB screen; assay type: cell-based; details: Homo sapiens; single dose 10^−5 M; 786-0, Renal cancer; read-out: Growth inhibition (%)
OVCAR-3 = test: NCI-60 SRB screen; assay type: cell-based, human; details: Homo sapiens; single dose 10^−5 M; OVCAR-3, Ovarian cancer; read-out: Growth inhibition (%)
A549/ATCC = test: NCI-60 SRB screen; assay type: cell-based, human; details: Homo sapiens, single dose 10^−5 M, Non-small cell lung carcinoma, read-out: Growth inhibition (%)
NCI-H522 = test: NCI-60 SRB screen; assay type: cell-based, human; details: Homo sapiens; single dose 10^−5 M; NCI-H522, Non-small cell lung carcinoma; read-out: Growth inhibition (%)
LOX IMVI = test: NCI-60 SRB screen; assay type: cell-based, human; details: Homo sapiens, single dose 10^−5 M, Melanoma, read-out: Growth inhibition (%)
SW-620 = test: NCI-60 SRB screen; assay type: cell-based; details: Homo sapiens; single dose 10^−5 M; SW-620, Colon cancer; read-out: Growth inhibition (%)
CCRF-CEM = test: NCI-60 SRB screen; assay type: cell-based; details: Homo sapiens, single dose 10^−5 M, Leukaemia, read-out: Growth inhibition (%)
NCI-H460 = test: NCI-60 SRB screen; assay type: cell-based, human; details: Homo sapiens; single dose 10^−5 M; NCI-H460, Non-small cell lung carcinoma; read-out: Growth inhibition (%)
SF-295 = test: NCI-60 SRB screen; assay type: cell-based, human; details: Homo sapiens; single dose 10^−5 M; SF-295, CNS cancer; read-out: Growth inhibition (%)
SK-MEL-2 = test: NCI-60 SRB screen; assay type: cell-based, human; details: Homo sapiens; single dose 10^−5 M; SK-MEL-2, Melanoma; read-out: Growth inhibition (%)
OVCAR-4 = test: NCI-60 SRB screen; assay type: cell-based, human; details: Homo sapiens; single dose 10^−5 M; OVCAR-4, Ovarian cancer; read-out: Growth inhibition (%)
UACC-62 = test: NCI-60 SRB screen; assay type: cell-based, human; details: Homo sapiens; single dose 10^−5 M; UACC-62, Melanoma; read-out: Growth inhibition (%)
NCI-H23 = test: NCI-60 SRB screen; assay type: cell-based, human; details: Homo sapiens; single dose 10^−5 M; NCI-H23, Non-small cell lung carcinoma; read-out: Growth inhibition (%)
UACC-257 = test: NCI-60 SRB screen; assay type: cell-based, human; details: Homo sapiens; single dose 10^−5 M; UACC-257, Melanoma; read-out: Growth inhibition (%)
EKVX = test: NCI-60 SRB screen; assay type: cell-based, human; details: Homo sapiens, single dose 10^−5 M, Non-small cell lung carcinoma, read-out: Growth inhibition (%)
KM12 = test: NCI-60 SRB screen; assay type: cell-based, human; details: Homo sapiens; single dose 10^−5 M; KM12, Colon cancer; read-out: Growth inhibition (%)
SR = test: NCI-60 SRB screen; assay type: cell-based; details: Homo sapiens, single dose 10^−5 M, Leukaemia, read-out: Growth inhibition (%)
SK-MEL-28 = test: NCI-60 SRB screen; assay type: cell-based; details: Homo sapiens; single dose 10^−5 M; SK-MEL-28, Melanoma; read-out: Growth inhibition (%)
HL-60(TB) = test: NCI-60 SRB screen; assay type: cell-based, human; details: Homo sapiens; single dose 10^−5 M; HL-60(TB), Leukaemia; read-out: Growth inhibition (%)
K-562 = test: NCI-60 SRB screen; assay type: cell-based, human; details: Homo sapiens, K562; single dose 10^−5 M; K-562, Leukaemia; read-out: Growth inhibition (%)
ACHN = test: NCI-60 SRB screen; assay type: cell-based; details: Homo sapiens, single dose 10^−5 M, Renal cancer, read-out: Growth inhibition (%)
SK-MEL-5 = test: NCI-60 SRB screen; assay type: cell-based, human; details: Homo sapiens; single dose 10^−5 M; SK-MEL-5, Melanoma; read-out: Growth inhibition (%)
RXF 393 = test: NCI-60 SRB screen; assay type: cell-based, human; details: Homo sapiens; single dose 10^−5 M; RXF 393, Renal cancer; read-out: Growth inhibition (%)
OVCAR-8 = test: NCI-60 SRB screen; assay type: cell-based, human; details: Homo sapiens; single dose 10^−5 M; OVCAR-8, Ovarian cancer; read-out: Growth inhibition (%)
CAKI-1 = test: NCI-60 SRB screen; assay type: cell-based, human; details: Homo sapiens; single dose 10^−5 M; CAKI-1, Renal cancer; read-out: Growth inhibition (%)
SF-268 = test: NCI-60 SRB screen; assay type: cell-based, human; details: Homo sapiens; single dose 10^−5 M; SF-268, CNS cancer; read-out: Growth inhibition (%)
NCI/ADR-RES = test: NCI-60 SRB screen; assay type: cell-based, human; details: Homo sapiens, single dose 10^−5 M, Ovarian cancer, read-out: Growth inhibition (%)
NCI-H226 = test: NCI-60 SRB screen; assay type: cell-based, human; details: Homo sapiens; single dose 10^−5 M; NCI-H226, Non-small cell lung carcinoma; read-out: Growth inhibition (%)
TK-10 = test: NCI-60 SRB screen; assay type: cell-based, human; details: Homo sapiens; single dose 10^−5 M; TK-10, Renal cancer; read-out: Growth inhibition (%)
UO-31 = test: NCI-60 SRB screen; assay type: cell-based, human; details: Homo sapiens; single dose 10^−5 M; UO-31, Renal cancer; read-out: Growth inhibition (%)
IGROV1 = test: NCI-60 SRB screen; assay type: cell-based, human; details: Homo sapiens, IGROV-1; single dose 10^−5 M; IGROV1, Ovarian cancer; read-out: Growth inhibition (%)
NCI-H322M = test: NCI-60 SRB screen; assay type: cell-based, human; details: Homo sapiens, single dose 10^−5 M, Non-small cell lung carcinoma, read-out: Growth inhibition (%)
SN12C = test: NCI-60 SRB screen; assay type: cell-based, human; details: Homo sapiens, SN12C; single dose 10^−5 M; SN 12 C, Renal cancer; read-out: Growth inhibition (%)
M14 = test: NCI-60 SRB screen; assay type: cell-based, human; details: Homo sapiens; single dose 10^−5 M; M14, Melanoma; read-out: Growth inhibition (%)
HOP-92 = test: NCI-60 SRB screen; assay type: cell-based, human; details: Homo sapiens; single dose 10^−5 M; HOP-92, Non-small cell lung carcinoma; read-out: Growth inhibition (%)
HT-29 = test: NCI-60 SRB screen; assay type: cell-based; details: Homo sapiens; single dose 10^−5 M; HT-29, Colon cancer; read-out: Growth inhibition (%)
MDA-MB-435 = test: NCI-60 SRB screen; assay type: cell-based; details: Homo sapiens, MDA-MB-435, read-out: Growth inhibition (%)
MOLT-4 = test: NCI-60 SRB screen; assay type: cell-based; details: Homo sapiens; single dose 10^−5 M; MOLT-4, Leukaemia; read-out: Growth inhibition (%)
HOP-62 = test: NCI-60 SRB screen; assay type: cell-based, human; details: Homo sapiens; single dose 10^−5 M; HOP-62, Non-small cell lung carcinoma; read-out: Growth inhibition (%)
MALME-3M = test: NCI-60 SRB screen; assay type: cell-based, human; details: Homo sapiens, single dose 10^−5 M, Melanoma, read-out: Growth inhibition (%)
[1] = test system: panel of 60 cancer cell lines; test: NCI-60 SRB screen, mean or range over the panel; assay type: cell-based, human; details: Homo sapiens; mean over the cell lines; single dose 10^−5 M; read-out: Mean growth inhibition (%)

N#CC1=C(N2CCOCC2)NC(c2cccc([N+](=O)[O-])c2)c2sc3c(F)cccc3c21 (stereo not drawn) [Compound 8e, 4-Cyano-3-(4-morpholino)-8-fluoro-1-(3-nitrophenyl)-1,2-dihydro [1]benzothieno[2,3-c]pyridine]
inhibition at 10 µM (HCT-15): -6.78% | inhibition at 10 µM (HCT-116): 8.86% | inhibition at 10 µM (HCC-2998): -8.91% | inhibition at 10 µM (COLO 205): -17.4% | inhibition at 10 µM (786-0): -9.79% | inhibition at 10 µM (OVCAR-3): 0.17% | inhibition at 10 µM (A549/ATCC): 0.1% | inhibition at 10 µM (NCI-H522): 8.18% | inhibition at 10 µM (LOX IMVI): 3.9% | inhibition at 10 µM (SW-620): 5.32% | inhibition at 10 µM (CCRF-CEM): 6.67% | inhibition at 10 µM (NCI-H460): 2.61% | inhibition at 10 µM (SF-295): -6.46% | inhibition at 10 µM (SK-MEL-2): 0.38% | inhibition at 10 µM (OVCAR-4): -2.02% | inhibition at 10 µM (UACC-62): 6.7% | inhibition at 10 µM (NCI-H23): 2.35% | inhibition at 10 µM (UACC-257): -6.7% | inhibition at 10 µM (EKVX): 9.9% | inhibition at 10 µM (KM12): 0.52% | inhibition at 10 µM (SR): 9.91% | inhibition at 10 µM (SK-MEL-28): -10.6% | inhibition at 10 µM (HL-60(TB)): -16.5% | inhibition at 10 µM (K-562): 9.66% | inhibition at 10 µM (ACHN): 11.9% | inhibition at 10 µM (SK-MEL-5): -14.6% | inhibition at 10 µM (RXF 393): -2.93% | inhibition at 10 µM (OVCAR-8): 4.28% | inhibition at 10 µM (CAKI-1): 27.4% | inhibition at 10 µM (SF-268): 7.51% | inhibition at 10 µM (NCI/ADR-RES): -0.28% | inhibition at 10 µM (NCI-H226): 10.4% | inhibition at 10 µM (TK-10): -59.3% | inhibition at 10 µM (UO-31): 38.4% | inhibition at 10 µM (IGROV1): 25.4% | inhibition at 10 µM (NCI-H322M): 3.9% | inhibition at 10 µM (SN12C): 6.28% | inhibition at 10 µM (M14): -1.97% | inhibition at 10 µM (HOP-92): 11.8% | inhibition at 10 µM (HT-29): -5.64% | inhibition at 10 µM (MDA-MB-435): -7.7% | inhibition at 10 µM (MOLT-4): 5.54% | inhibition at 10 µM (HOP-62): 18% | inhibition at 10 µM (MALME-3M): -7.29% | inhibition at 10 µM [1]: 1.3%
